Assay results reported in patent USRE47826E1, “Drug delivery device for providing local analgesia, local anesthesia or nerve blockage” (INNOCOLL PHARMACEUTICALS LIMITED, priority 2007, dated 2020).
Counter-ions that a name gives are not always drawn. Like-named read-outs stand apart in the source and are kept apart here. Blank lines part the entries; values can stand above or below the compound they belong to.

Key:
plasma proteins = conditions: cited from earlier work
[1] = neonates; cited from earlier work
[2] = in vivo; cited from earlier work
[3] = Clinical study: bupivacaine plasma pharmacokinetics after sponge implantation; assay type: in vivo, human
Description: Patients received three 5 cm×5 cm (×0.5 cm thick) sponges; one sponge divided between areas adjacent the surgical site (in this case, adjacent the location of the now-removed uterus), one sponge divided and placed across the incision in the wall of the body cavity (in this case, the peritoneum) and the final sponge divided and placed between the sheath and skin around the incision. Each sponge contained 50 mg of bupivacaine hydrochloride, giving a total dose of 150 mg per patient.
The patients were scheduled to receive a hysterectomy in the absence of uterine adenocarcinoma, cervical cancer, leiomyosarcoma or the suspicion of these cancers.

[4] = test system: Caesarian section patients; conditions: […] or 0.5%, 20 ml, cited from earlier work
hysterectomy patients [5] = conditions: cited from earlier work; for average postoperative morphine consumption: infiltration in deep and superficial layers of the wound after abdominal hysterectomy
hysterectomy patients [6] = conditions: cited from earlier work
[7] = mean, n=11, three sponges, 150 mg

Cmax ([3]; female, human, 150 mg, after implantation of three bupivacaine-collagen sponges, 150 mg, read-out: highest individual Cmax): 440 ng/mL
Cmax ([3]; female, human, 150 mg, after implantation of three bupivacaine-collagen sponges, 150 mg, read-out: mean Cmax): 220 ng/mL
SMILES: CCCCN1CCCCC1C(=O)Nc1c(C)cccc1C (stereo not drawn) [bupivacaine, Bupivacaine]
bound to plasma proteins (plasma proteins): about 95%
Reported half-lives [1]: about 8 hours
known systemic toxicity level [2]: 2 to 4 µg/mL
duration of the effect on analgesic consumption ([4]; Caesarian section): 4 h
reduction in analgesic consumption ([4]; three studies on Caesarian section): 20-50%
reduction in analgesic consumption (hysterectomy patients [5]; […] solution 45 ml infiltrated subfascially and subcutaneously, Hannibal): 50%
average postoperative morphine consumption (hysterectomy patients [5]; Klein et al 2000): 54 mg
average postoperative morphine consumption (hysterectomy patients [5]; Ng et al 2002): 44 mg
analgesia compared with no treatment (hysterectomy patients [5]; subcutaneous infiltration of solution, Cobby 1997, Victory 1995): no improvement in analgesia

SMILES: CCCCN1CCCC[C@H]1C(=O)Nc1c(C)cccc1C [levobupivacaine]
incisional pain, deep pain and pain on coughing versus normal saline (hysterectomy patients [6]; […] infusion 12.5 mg/hr over 24 hours, 1-2 hours post surgery): significant reduction
Total ketobemidone (PCA narcotic) (hysterectomy patients [6]; […] infusion 12.5 mg/hr, 4-24 hour period): significantly reduced

tlag ([3]; efficacy population n=12, three sponges, 150 mg bupivacaine HCl, column head Mean, marked *): 0.000 h
Cmax ([3]; female, human, 150 mg, mean, n=12, three sponges, 150 mg bupivacaine HCl, read-out: Cmax): 225 ng/mL
AUC(0-inf) ([3]; female, human, mean, n=11, three sponges, 150 mg): 6360 ng·h/mL
AUC(0-t) ([3]; female, human, mean, n=12, three sponges, 150 mg): 6530 ng·h/mL
Tmax ([3]; female, human, n=12, three sponges, 150 mg, column head Mean, marked *): 12 h
t1/2z [3, 7]: 10.092 h
λz [3, 7]: 0.07084 h⁻¹
SMILES: CCCCN1CCCCC1C(=O)Nc1c(C)cccc1C (stereo not drawn) [Bupivacaine Hydrochloride]

SMILES: CCN(CC)CC(=O)Nc1c(C)cccc1C [lidocaine]
reduction in pain scores and supplementary analgesic consumption (hysterectomy patients [5]; 500 mg aerosol subcutaneously, first 24 hours, Sinclair et al 1996): approximately 50%
